Measurements: patent US20090311237A1, “Combination therapy using a soluble hyaluronidase and a bisphosphonate” (priority 2008, published 2009)
Read-outs that look alike come from different tables or passages of the source.

Test: Pharmacokinetics of ZA in pig serum after IV or SC infusion with or without rHuPH20 (LC-MS-MS, non-compartmental analysis)
Assay type: in vivo
Settings: female, Yorkshire, pig, serum, subcutaneous, […], ZA […], read-out: Zoledronic Acid Serum Concentration
Protocol: A pharmacokinetic study of zoledronic acid (ZA) co-administered with rHuPH20 in female Yorkshire swines was conducted. The primary objective of the study was to determine the bioavailability of zoledronic acid dosed via subcutaneous (SC) co-administration with human recombinant hyaluronidase PH20 (rHuPH20) and to compare the overall exposure to an equivalent IV dose.
Animals in Study Group 1 were dosed with 0.15 mg/kg ZA given via a 20-minute IV infusion. Animals in Study Groups 2 and 3 were dosed subcutaneously (SC) with 0.15 mg/kg ZA without and with rHuPH20, respectively, in different SC delivery volumes.
Following ZA dose administration, serial blood samples were collected via vascular access ports (VAPs) for serum preparation and determination of ZA concentrations. Blood collection times were at 1, 3, 5, 10, 15, 20, 30, 45, and 60 minutes, and at 1.5, 2, 3, 4, 6, 8, 10, 24, 48, and 72 hours post dose. Urine samples were also collected to compare excretion characteristics between IV and SC routes of administration. Collection times for urine were at 15 minutes before dosing (−15 min.), continuously from dose initiation to 2 hours post dose, and at 4, 6, 8, and 24 hours post dose thereafter.
Serum concentration of ZA was determined using a qualified LC-MS-MS assay after derivatization with diazomethane (Zhu, L S et al. (2006) Rapid Commun. Mass Spectrom. 20: 3421-3426; “Qualification Data of An LC-MS/MS Method for the Determination of Zoledronate in Porcine Serum”, MDS Pharma Services Study No. AA43671-01, Report Date 14 Sep. 2007). The assay range was from 2.0 to 400 ng/mL with a lower limit of quantitation (LLOQ) at 2.0 ng/mL. Urine concentration of ZA was determined by a similar well qualified LC-MS-MS method (“Qualification Data of An LC-MS/MS Method for the Determination of Zoledronate in Porcine Urine”, MDS Pharma Services Study No. AA43671-02, Report Date 14 Sep. 2007) with an assay LLOQ at 10 ng/mL.
Pharmacokinetic (PK) analyses of ZA serum concentration versus time data were conducted using WinNonlin v5.1 (Pharsight, Mountain View, Calif.). Non-compartmental analysis was used for derivation of primary and secondary pharmacokinetic (PK) parameters. AUC, Cmax, and Tmax were compared between dose routes, between co-administration with rHuPH20, and with dose of rHuPH20.

With `O=P(O)(O)C(O)(Cn1ccnc1)P(=O)(O)O` [ZA, 1-hydroxy-2-(1H-imidazol-1-yl)ethylidene-1,1-bisphosphonic acid] the concentration at 1 h (Time 1 h, pig ID 70, Study Group 2, SC, 10 mL, 1.6 min, rHuPH20 0 U/mL) was 101 ng/mL, the concentration at 2 h (Time 2 h, pig ID 59, Study Group 2, SC, 100 mL, 16 min, rHuPH20 0 U/mL) was 22.9 ng/mL and the concentration at 2 h (Time 2 h, pig ID 60, Study Group 2, SC, 100 mL, 16 min, rHuPH20 0 U/mL) was 75.8 ng/mL. The concentration at 2 h (Time 2 h, pig ID 62, Study Group 2, SC, 50 mL, 8 min, rHuPH20 0 U/mL) was 28.4 ng/mL, the concentration at 2 h (Time 2 h, pig ID 69, Study Group 2, SC, 25 mL, 4 min, rHuPH20 0 U/mL) was 31.8 ng/mL and the concentration at 2 h (Time 2 h, pig ID 70, Study Group 2, SC, 10 mL, 1.6 min, rHuPH20 0 U/mL) was 37.7 ng/mL. For the same compound, the concentration at 3 h (Time 3 h, pig ID 59, Study Group 2, SC, 100 mL, 16 min, rHuPH20 0 U/mL) was 13.3 ng/mL, the concentration at 3 h (Time 3 h, pig ID 60, Study Group 2, SC, 100 mL, 16 min, rHuPH20 0 U/mL) was 27.5 ng/mL and the concentration at 3 h (Time 3 h, pig ID 62, Study Group 2, SC, 50 mL, 8 min, rHuPH20 0 U/mL) was 13.5 ng/mL. It also gave a concentration at 3 h (Time 3 h, pig ID 69, Study Group 2, SC, 25 mL, 4 min, rHuPH20 0 U/mL) of 20.5 ng/mL, a concentration at 3 h (Time 3 h, pig ID 70, Study Group 2, SC, 10 mL, 1.6 min, rHuPH20 0 U/mL) of 22.2 ng/mL and a concentration at 4 h (Time 4 h, pig ID 59, Study Group 2, SC, 100 mL, 16 min, rHuPH20 0 U/mL) of 6.48 ng/mL. It also gave a concentration at 4 h (Time 4 h, pig ID 60, Study Group 2, SC, 100 mL, 16 min, rHuPH20 0 U/mL) of 9.03 ng/mL, a concentration at 4 h (Time 4 h, pig ID 62, Study Group 2, SC, 50 mL, 8 min, rHuPH20 0 U/mL) of 4.74 ng/mL and a concentration at 4 h (Time 4 h, pig ID 69, Study Group 2, SC, 25 mL, 4 min, rHuPH20 0 U/mL) of 8.11 ng/mL. It also gave a concentration at 4 h (Time 4 h, pig ID 70, Study Group 2, SC, 10 mL, 1.6 min, rHuPH20 0 U/mL) of 9.47 ng/mL, a concentration at 6 h (Time 6 h, pig ID 60, Study Group 2, SC, 100 mL, 16 min, rHuPH20 0 U/mL) of 3.6 ng/mL and a concentration at 6 h (Time 6 h, pig ID 62, Study Group 2, SC, 50 mL, 8 min, rHuPH20 0 U/mL) of 2.99 ng/mL. For the same compound, the concentration at 6 h (Time 6 h, pig ID 69, Study Group 2, SC, 25 mL, 4 min, rHuPH20 0 U/mL) was 2.92 ng/mL, the concentration at 6 h (Time 6 h, pig ID 70, Study Group 2, SC, 10 mL, 1.6 min, rHuPH20 0 U/mL) was 4.09 ng/mL and the concentration at 8 h (Time 8 h, pig ID 70, Study Group 2, SC, 10 mL, 1.6 min, rHuPH20 0 U/mL) was 2.07 ng/mL. It also gave a concentration at […] (pig 56, Study Group 3, SC, rHuPH20 10000 U/mL, 25 mL over 4 min, time […]) of 29.2 ng/mL, a concentration at 2 h (pig 58, Study Group 3, SC, rHuPH20 10000 U/mL, 50 mL over 8 min, time 2 h) of 40.1 ng/mL and a concentration at 3 h (pig 58, Study Group 3, SC, rHuPH20 10000 U/mL, 50 mL over 8 min, time 3 h) of 10.8 ng/mL. It also gave a concentration at 4 h (pig 58, Study Group 3, SC, rHuPH20 10000 U/mL, 50 mL over 8 min, time 4 h) of 8.27 ng/mL, a concentration at 6 h (pig 58, Study Group 3, SC, rHuPH20 10000 U/mL, 50 mL over 8 min, time 6 h) of 2.65 ng/mL and a concentration at 0.05 h (pig 64, Study Group 3, SC, rHuPH20 10000 U/mL, 100 mL over 16 min, time 0.05 h) of 57 ng/mL. It also gave a concentration at 0.333 h (pig 64, Study Group 3, SC, rHuPH20 10000 U/mL, 100 mL over 16 min, time 0.333 h) of 253 ng/mL, a concentration at 0.5 h (pig 64, Study Group 3, SC, rHuPH20 10000 U/mL, 100 mL over 16 min, time 0.5 h) of 197 ng/mL and a concentration at 1 h (pig 64, Study Group 3, SC, rHuPH20 10000 U/mL, 100 mL over 16 min, time 1 h) of 101 ng/mL. It also gave a concentration at 2 h (pig 64, Study Group 3, SC, rHuPH20 10000 U/mL, 100 mL over 16 min, time 2 h) of 50.9 ng/mL and a concentration at 3 h (pig 64, Study Group 3, SC, rHuPH20 10000 U/mL, 100 mL over 16 min, time 3 h) of 29.8 ng/mL.
